# Source: a melting point compilation (Tetko et al.; mined from patent text by program, amines drawn as free bases though some values may be those of a salt)
row,Compound,melting point [°C]
1,COc1c(C)cc2c(c1C)C(c1ccc(C(C)C)cc1)C(C)(C)O2 (stereo not given),121 to 123
2,N#Cc1ccc2oc3ncccc3c(=O)c2c1,260
3,COc1ccc(N2CCN(c3c(C)c(C)c4c(c3C)C(C3CCCCC3)C(C)(C)O4)CC2)cc1 (stereo not given),119 to 121
4,O=C1N(C(c2ccccc2)c2ccccc2)c2ccccc2C1(O)c1cc2c(cc1O)OCCCO2 (stereo not given),115 to 118
5,CC(C)n1c(/C=C/C(O)CC(O)CC(=O)OC(C)(C)C)c(-c2ccc(F)cc2)c2ncccc21 (stereo not given),62 to 65
6,CC(C)(C)c1ccc2c(c1O)C(=O)c1c(O)cccc1C2,126 to 127
7,O=S(=O)(Nc1ccc2c(OCc3csc(-c4ccc(F)cc4F)n3)cccc2c1)C(F)(F)F,191 to 192
8,COc1cc(OC)c([N+](=O)[O-])c(OC)c1N,111
9,Cn1c(C(F)(F)F)cc(=O)n(-c2ccc(Cl)c(C=O)c2)c1=O,151 to 153
10,Clc1ccc(Nc2nnc(Cc3ccncc3)c3ccncc23)cc1,220 to 221
11,COc1ccccc1NC(=O)Nc1ccc(CC(=O)O)cc1OC,182 to 185
12,CC(C)(C)c1ccc(Cn2ccc3ccc(-c4ccc(OC(F)(F)F)cc4)cc32)cc1,100 to 102
13,Cc1cc(C)nc(NC(=O)NS(=O)(=O)c2ccccc2O)n1,180
14,C=CC(CCc1ccccc1)NC(=O)c1ccccc1 (stereo not given),131
15,N#Cc1ccc(N2C(=O)N(CCF)C3(CCOCC3)C2=O)cc1C(F)(F)F,192 to 193
16,O=Cc1cc2cc(OCc3ccccc3)ccc2nc1Cl,180 to 182
17,Cc1nc(-c2ccc(OCC(F)(F)C(F)F)cc2)sc1C(=O)O,167 to 168
18,CCC(C)c1ccc(-n2c(-c3cc(C)c(OCCO)c(C)c3)nc3ccc(F)cc3c2=O)cc1 (stereo not given),70 to 72
19,O=C(Nc1ccc(C(=O)N2Cc3ccccc3Oc3ccccc32)c(Cl)c1)c1ccccc1-c1ccccc1,145 to 188
20,CC(=O)SCSc1cn(C)nn1,71 to 72
21,NS(=O)(=O)c1cccc(NC(=O)Nc2c(F)c(F)c(F)c(F)c2F)c1,224 to 227
22,CC1CC(N)=NN1c1cccc(Cl)n1 (stereo not given),105 to 107
23,O=C(Nc1ccc(C(=O)N2Cc3ccccc3Cc3ccccc32)cc1)c1ccc(F)cc1F,215 to 217
24,CN(C)Cc1c[nH]c2ccc(OCc3ccccc3)c(Cl)c12,137 to 139
25,O=c1[nH]c(=O)n2c3c1cnn3C(c1cccc(C(F)(F)F)c1)=CC2,260 to 262
26,COCOc1ccccc1-c1cc(-c2ccc(OC)c(C(=O)O)c2)c(C#N)c(NC(=O)c2cccs2)n1,187 to 189
27,O=C(OC1CNC(=N[N+](=O)[O-])NC1)C1(C2CCCCC2)CCCCC1 (stereo not given),196 to 197

# The remaining lines, values ahead:
row,melting point [°C],Compound
1,131 to 133,Nc1c([N+](=O)[O-])cc(Br)c2c1CCN(Cc1ccc(C(F)(F)F)cc1)C2
2,98.5 to 99.5,CCCCc1cccnc1NC=C(C#N)C(=O)OCC
3,166 to 168,CCOC(=O)C1=Cc2cccc(/C=C/C(=O)O)c2OCC1
4,90 to 94,CCNC(=O)c1c([Si](C)(C)C)sc(C)c1C
5,120,C[Si](C)(C)CNc1ccc([N+](=O)[O-])cc1
6,154 to 156,COc1cn(-c2ccccc2F)nc(C(C)=O)c1=O
7,117 to 118,CCOc1ccc(CNC(=O)C(=O)NCCc2ccccn2)c(OC)c1
8,107,COc1nc(C)c2c(c1C=O)CCCC2O (stereo not given)
9,73 to 74,COC(=O)C[C@H]1[C@H](NC(=O)OC(C)(C)C)CCN1C(=O)OCc1ccccc1 (relative stereo)
10,156 to 157,CCC1COc2c(Cc3ccc(C(C)C)cc3)c(C)c(NC(=O)CC(C)(C)C)c(C)c21 (stereo not given)
11,166 to 167,COc1cc2c(cc1OC)CCC(C(=O)N1CCN(C(=O)c3ccc(OC)c(OC)c3OC)CC1)=C2
12,92 to 93,CCOc1ccc(C2=NN(C3CCCCCC3)C(=O)[C@H]3CC=CC[C@@H]23)cc1OCC (relative stereo)
13,150 to 151,CN1CCN(C2=Nc3ccccc3Oc3sc(Br)cc32)CC1
14,50 to 51,CC(=O)C=CC1=C(C)C(=O)CCC1(C)C
15,82,CCc1noc(=O)n1C(=O)NC
16,101,CCCCCCCCOc1ccc(-c2ccc(CCl)cc2)cc1
17,191 to 192,COC(=O)c1cc(C)c(C(=O)O)c(C)c1
18,> 240,CON1CCC2(CC1)NC(=O)C(c1c(C)cc(C#C[Si](C)(C)C)cc1C)=C2O
19,95 to 97,CCCN(CCC)CCC1=CC(=O)CCC1
20,84,CC(=O)N(C)c1csc(Br)n1
21,124 to 125,COc1cn(C(C)=O)c2ccc(F)cc12
22,173 to 175,O=c1[nH]c2ccccc2c(=O)n1CCCN1CCC(OC(c2ccccc2)c2ccccc2)CC1
23,200,CCOC(=O)c1cnc(OCC)c2c(C)n[nH]c12
